Measured values from patent US11033539B2, “Compounds of formulas (VII), (VIII), (IX), (XI), (XII), (XIII), and (XIV) as muscarinic receptor 4(M4) antagonists for treating neurological diseases” (Neurocrine Biosciences, Inc., priority 2015, dated 2021).

Biological target: human M1 receptor (Homo sapiens (Human), UniProt P11229)
Assay: Radioligand (tritiated N-methylscopolamine) binding assay, M1
Conditions: CHO cell membranes expressing human M1; 1.5 nM tritiated N-methylscopolamine; 90 min, 37° C.; read-out: Ki against M1 receptor (Table 21, M1)
Experimental: (§1) Binding affinity (Ki) of compounds was measured by inhibition of radioligand binding to membranes from CHO cells expressing human M1, M2, M3, M4 and M5 receptors. Membranes were prepared by nitrogen cavitation and differential centrifugation as previously described (Hoare et al., Mol. Pharmacol. 2003 March; 63(3): 751-65). The radioligand employed was tritiated N-methylscopolamine, used at a concentration of 1.5 nM. A dose-response of twelve concentrations of compound was used, ranging from 10 μM to […]. The assay buffer was 50 mM HEPES, 100 mM NaCl, 5 mM MgCl2, 1 mM ethylenediaminetetraacetic acid, pH-adjusted to pH 7.4. Membranes, radioligand and compound were incubated together for 90 minutes at 37° C., in a total volume of 150 μl in a 96-well plate. Receptor-bound radioligand was then collected by harvesting the assay over glass fiber filters pretreated with polyethylenimine to trap the cell membranes, using rapid vacuum filtration. Harvesting and radioactivity counting was conducted as previously described (see, e.g., Hoare et al., Mol. Pharmacol. 2003 63(3):751-65); Erratum at Mol. Pharmacol. 2005 July; 68(1): 260).

Sequence of human M1 receptor (P11229 whole entry): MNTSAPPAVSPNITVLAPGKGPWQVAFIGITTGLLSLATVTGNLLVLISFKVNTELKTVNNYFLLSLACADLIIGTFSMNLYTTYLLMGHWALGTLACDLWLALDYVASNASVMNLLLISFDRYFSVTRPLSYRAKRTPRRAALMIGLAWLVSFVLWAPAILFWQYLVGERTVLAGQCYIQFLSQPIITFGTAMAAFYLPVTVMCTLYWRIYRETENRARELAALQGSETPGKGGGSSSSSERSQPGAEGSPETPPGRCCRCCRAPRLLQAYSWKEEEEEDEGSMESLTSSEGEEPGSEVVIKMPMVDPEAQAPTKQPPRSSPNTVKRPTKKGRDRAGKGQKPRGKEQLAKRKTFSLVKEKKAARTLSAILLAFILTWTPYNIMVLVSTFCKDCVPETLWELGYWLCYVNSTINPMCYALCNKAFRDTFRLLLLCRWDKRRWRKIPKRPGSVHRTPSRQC

Row | Structure (SMILES) | Ki [nM]
1 | O=C(NCCC1(O)CCN(Cc2ccccc2)CC1)C1CCN(c2ccc(OC(F)(F)F)c(F)c2)CC1 [9-72, N-[2-(1-benzyl-4-hydroxypiperidin-4-yl)ethyl]-1-[3-fluoro-4-(trifluoromethoxy)phenyl]piperidine-4-carboxamide] | 100 to 1000
2 | O=C(NCCC1CCN(Cc2ccccc2)CC1)c1ccc(-c2ccc(OC(F)(F)F)cc2)cc1 [9-70, N-[2-(1-benzylpiperidin-4-yl)ethyl]-4-[4-(trifluoromethoxy)phenyl]benzamide] | 100 to 1000
3 | CC1CN(c2ccc(OC(F)(F)F)cc2)CCC1C(=O)NCCC1CCN(Cc2ccccc2)CC1 (stereo not drawn) [10-42, N-[2-(1-benzylpiperidin-4-yl)ethyl]-3-methyl-1-[4-(trifluoromethoxy)phenyl]piperidine-4-carboxamide] | 100 to 1000

Biological target: human M2 receptor (Homo sapiens (Human), UniProt P08172)
Assay: Radioligand (tritiated N-methylscopolamine) binding assay, M2
Conditions: CHO cell membranes expressing human M2; 1.5 nM tritiated N-methylscopolamine; 90 min, 37° C.; read-out: Ki against M2 receptor (Table 21, M2)
Experimental: as §1

Sequence of human M2 receptor (P08172 whole entry): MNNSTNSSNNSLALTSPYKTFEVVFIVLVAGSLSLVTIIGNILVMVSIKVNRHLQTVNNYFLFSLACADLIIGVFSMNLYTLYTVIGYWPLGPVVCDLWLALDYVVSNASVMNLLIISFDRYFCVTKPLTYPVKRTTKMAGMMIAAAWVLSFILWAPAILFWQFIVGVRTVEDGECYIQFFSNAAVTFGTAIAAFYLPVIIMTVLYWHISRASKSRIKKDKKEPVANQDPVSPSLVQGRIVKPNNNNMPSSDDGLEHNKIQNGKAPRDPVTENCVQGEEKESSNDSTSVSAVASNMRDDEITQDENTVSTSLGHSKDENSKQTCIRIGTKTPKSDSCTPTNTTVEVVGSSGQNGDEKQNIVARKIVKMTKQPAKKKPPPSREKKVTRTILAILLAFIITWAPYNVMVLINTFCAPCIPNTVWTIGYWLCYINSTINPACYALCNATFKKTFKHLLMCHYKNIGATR

Row | Structure (SMILES) | Ki [nM]
4 | O=C(NCCC1(O)CCN(Cc2ccccc2)CC1)C1CCN(c2ccc(OC(F)(F)F)c(F)c2)CC1 [9-72, N-[2-(1-benzyl-4-hydroxypiperidin-4-yl)ethyl]-1-[3-fluoro-4-(trifluoromethoxy)phenyl]piperidine-4-carboxamide] | 100 to 1000
5 | O=C(NCCC1CCN(Cc2ccccc2)CC1)C1CCN(c2cc(F)c(F)c(F)c2)CC1 [10-43, N-[2-(1-benzylpiperidin-4-yl)ethyl]-1-(3,4,5-trifluorophenyl)piperidine-4-carboxamide] | 100 to 1000
6 | O=C(NCCC1CCN(Cc2ccccc2)CC1)C1CCN(c2ccc(OC(F)(F)F)c(F)c2)CC1 [10-44, N-[2-(1-benzylpiperidin-4-yl)ethyl]-1-[3-fluoro-4-(trifluoromethoxy)phenyl]piperidine-4-carboxamide] | 100 to 1000
7 | O=C(NCCC1CCN(Cc2ccccc2)CC1)c1ccc(-c2ccc(OC(F)(F)F)cc2)cc1 [9-70, N-[2-(1-benzylpiperidin-4-yl)ethyl]-4-[4-(trifluoromethoxy)phenyl]benzamide] | 100 to 1000
8 | CC1CN(c2ccc(OC(F)(F)F)cc2)CCC1C(=O)NCCC1CCN(Cc2ccccc2)CC1 (stereo not drawn) [10-42, N-[2-(1-benzylpiperidin-4-yl)ethyl]-3-methyl-1-[4-(trifluoromethoxy)phenyl]piperidine-4-carboxamide] | 100 to 1000
9 | O=C(NCC(O)C1CCN(Cc2ccccc2)CC1)C1CCN(c2ccc(OC(F)(F)F)cc2)CC1 (stereo not drawn) [9-71, N-[2-(1-benzylpiperidin-4-yl)-2-hydroxyethyl]-1-[4-(trifluoromethoxy)phenyl]piperidine-4-carboxamide] | 100 to 1000

Biological target: human M4 receptor (Homo sapiens (Human), UniProt P08173)
Assay: Radioligand (tritiated N-methylscopolamine) binding assay, M4
Conditions: not given
Method in brief: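 Test compound (12 concentrations, 10 μM to […]), 1.5 nM radioligand and CHO receptor membranes were co-incubated at 37 °C for 90 minutes in 50 mM HEPES buffer with 100 mM NaCl, 5 mM MgCl2 and 1 mM EDTA, pH 7.4. Membranes were then harvested onto polyethylenimine-pretreated filters and radioactivity was counted to determine Ki.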

Sequence of human M4 receptor (P08173 whole entry): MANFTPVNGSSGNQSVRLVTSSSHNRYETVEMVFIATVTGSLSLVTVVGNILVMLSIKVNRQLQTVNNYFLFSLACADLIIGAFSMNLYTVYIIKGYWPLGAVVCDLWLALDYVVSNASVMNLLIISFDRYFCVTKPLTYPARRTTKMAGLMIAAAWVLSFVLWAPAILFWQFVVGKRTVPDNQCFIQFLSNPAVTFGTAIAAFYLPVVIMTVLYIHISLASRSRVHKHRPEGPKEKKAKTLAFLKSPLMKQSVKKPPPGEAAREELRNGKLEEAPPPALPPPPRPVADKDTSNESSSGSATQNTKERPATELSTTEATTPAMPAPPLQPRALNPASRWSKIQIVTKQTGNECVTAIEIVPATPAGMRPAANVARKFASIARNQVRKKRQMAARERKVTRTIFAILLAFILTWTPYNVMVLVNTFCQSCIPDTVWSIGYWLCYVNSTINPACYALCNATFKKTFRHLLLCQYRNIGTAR

Row | Structure (SMILES) | Ki [nM]
10 | N#CC1(c2ccccc2)CCN(C(=O)NCCC2CCN(Cc3ccccc3)CC2)CC1 [8-33, N-[2-(1-benzylpiperidin-4-yl)ethyl]-4-cyano-4-phenylpiperidine-1-carboxamide] | 100 to 1000

Same assay, conditions: Ki against the M4 receptor; membranes from CHO cells expressing human M4; tritiated N-methylscopolamine 1.5 nM; read-out: Ki

Row | Structure (SMILES) | Ki [nM]
11 | O=C(NCCC1CCN(Cc2ccccc2)CC1)N1CCC(O)(c2cccc(C(F)(F)F)c2)CC1 [8-19, N-[2-(1-benzylpiperidin-4-yl)ethyl]-4-hydroxy-4-[3-(trifluoromethyl)phenyl]piperidine-1-carboxamide] | 10 to 100
12 | CN(CCNC(=O)C1CCN(c2cccc(OC(F)(F)F)c2)CC1)[C@@H]1CCN(Cc2ccccc2)C1 [9-22, N-(2-{[(3R)-1-benzylpyrrolidin-3-yl](methyl)amino}ethyl)-1-[3-(trifluoromethoxy)phenyl]piperidine-4-carboxamide] | 10 to 100
13 | Cc1[nH]c(-c2ccc(Cl)cc2Cl)nc1C(=O)NCCC1CCN(Cc2ccccc2)CC1 [9-61, N-[2-(1-benzylpiperidin-4-yl)ethyl]-2-(2,4-dichlorophenyl)-5-methyl-1H-imidazole-4-carboxamide] | 100 to 1000
14 | C[C@@H]1CN(c2ncc(C(=O)O)cn2)CCN1C(=O)NCCC1CCN(Cc2ccccc2)CC1 [5-2, 2-[(3R)-4-{[2-(1-benzylpiperidin-4-yl)ethyl]carbamoyl}-3-methylpiperazin-1-yl]pyrimidine-5-carboxylic acid] | 100 to 1000
15 | CN(CCNC(=O)c1ccc(-c2ccccc2)cc1)[C@@H]1CCN(Cc2ccccc2)C1 [9-38, N-(2-{[(3R)-1-benzylpyrrolidin-3-yl](methyl)amino}ethyl)-4-phenylbenzamide] | 100 to 1000
16 | O=C(NCCC1CCN(Cc2cccc3c2OCCO3)CC1)c1ccc(OCc2ccccc2)cc1 [11-7, 4-(benzyloxy)-N-{2-[1-(2,3-dihydro-1,4-benzodioxin-5-ylmethyl)piperidin-4-yl]ethyl}benzamide] | 10 to 100
17 | COc1ccc(CN2CCC(CCNC(=O)N3[C@H](C)CN(c4ncc(C#N)cn4)C[C@@H]3C)CC2)cc1 [6-65, (2R,6S)-4-(5-cyanopyrimidin-2-yl)-N-(2-{1-[(4-methoxyphenyl)-methyl]piperidin-4-yl}ethyl)-2,6-dimethylpiperazine-1-carboxamide] | 10 to 100
18 | Cc1cc(C(=O)NC(C)C)nc(N2CCN(C(=O)NCCC3CCN(Cc4ccccc4)CC3)[C@H](C)C2)n1 [27-13] | 100 to 1000
